# Data from patent US8959984B2, “Proteome-wide quantification of small molecule binding to cellular target proteins” (priority 2007, dated 2015).
# Experiments:
# [1] = molecular target: T1, SgK085 (MYLK3) (Homo sapiens, UniProt Q32MK0); assay: binding to AX14596 beads (HeLa lysate, SILAC MS)
# T1 sequence (Q32MK0 1-819): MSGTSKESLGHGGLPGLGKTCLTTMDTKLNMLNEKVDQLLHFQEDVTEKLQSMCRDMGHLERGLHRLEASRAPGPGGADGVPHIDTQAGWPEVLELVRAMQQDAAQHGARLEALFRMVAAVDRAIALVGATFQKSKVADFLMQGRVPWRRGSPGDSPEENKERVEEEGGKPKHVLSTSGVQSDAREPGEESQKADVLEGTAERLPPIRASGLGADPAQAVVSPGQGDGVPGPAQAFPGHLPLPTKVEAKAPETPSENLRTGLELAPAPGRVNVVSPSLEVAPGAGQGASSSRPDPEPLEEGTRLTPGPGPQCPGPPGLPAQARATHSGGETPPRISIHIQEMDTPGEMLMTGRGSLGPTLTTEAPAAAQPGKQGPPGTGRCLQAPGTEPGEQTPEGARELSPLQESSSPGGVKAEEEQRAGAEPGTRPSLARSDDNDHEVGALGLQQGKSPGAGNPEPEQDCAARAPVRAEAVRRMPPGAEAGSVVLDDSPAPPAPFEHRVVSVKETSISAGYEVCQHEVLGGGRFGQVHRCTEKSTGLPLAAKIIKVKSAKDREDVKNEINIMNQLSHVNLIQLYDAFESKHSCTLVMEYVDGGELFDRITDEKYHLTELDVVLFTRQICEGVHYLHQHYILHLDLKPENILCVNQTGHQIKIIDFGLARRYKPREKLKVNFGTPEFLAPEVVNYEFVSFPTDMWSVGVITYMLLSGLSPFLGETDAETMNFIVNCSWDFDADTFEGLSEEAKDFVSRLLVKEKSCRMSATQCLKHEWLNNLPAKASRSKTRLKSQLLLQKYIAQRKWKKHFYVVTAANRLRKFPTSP
# Description: (§1) Differentially SILAC-encoded cell lysates were either incubated with the inhibitor beads displaying immobilized AX14596 or control resin devoid of ligand. In parallel, the supernatant from the first binding step was subjected to a second incubation with the AX14596 resin (FIG. 4). The resulting three elution fractions were combined, resolved by gel electrophoresis, proteolytically digested and the relative abundance of the retained proteins quantified. Proteins showing considerable binding to the control resin were identified as non-specific interactors and therefore not considered further. […] These target-specific ratios were similar in “label switch” experiments (FIGS. 6a and 6c). The binding equilibrium was determined in parallel control SILAC experiments as well as the excess of the immobilized compound over its cellular targets, the excess preferably being a molar excess (FIG. 7 and FIG. 8).
# (§2) Cysteine carbamidomethylation was set as a fixed modification and N-acetyl protein and oxidized methionine were allowed as variable modifications. Spectra that were determined to result from heavy labeled peptides in the pre-search detection of SILAC partners by MaxQuant were searched with the fixed modifications Lys^4, Lys^8, Arg^6 and Arg^10, whereas MS/MS spectra for which no SILAC state could be assigned before database searching were searched with Lys^4, Lys^8, Arg^6 and Arg^10 as variable modifications. The mass tolerance was set to 5 ppm for monoisotopic precursor ions and to 0.5 Da for MS/MS peaks. The minimum peptide length was set to 6 amino acids and up to three missed cleavages and three isotopically labeled amino acids were permitted per peptide. The accepted false discovery rate (FDR) was 1% for the proteins and peptides. The cut-off for the posterior error probability (PEP) of peptides was set to 10%. Peptide PEPs were determined by generating Mascot score and peptide-length-dependent histograms for both the forward and the reverse hits and then deriving the probability of a false identification for a given top-scoring peptide using Bayes' theorem. The PEPs of peptides belonging to the same proteins were then multiplied. Each peptide sequence was considered only once with the lowest PEP determined in case of multiple sequencing of the same isotopic pattern or of peptide species with different SILAC, charge or modification states. Proteins were then sorted according to their products of their peptide PEPs and included until a FDR of 1% was reached according to the fraction of reverse proteins contained in the protein list. In addition to the FDR threshold applied for protein identification, proteins were only included when they were identified with at least two peptides (of which one was required to be unique for the protein) and quantified if at least on quantifiable SILAC pair was associated with them. Outliers were not removed as protein ratios were calculated as the median instead of the average of all peptide ratios. For peptides shared among different identified proteins, SILAC ratios were only considered for the ratio of the protein identified with the highest number of unique peptides. Protein ratios for the different in vitro association experiments were corrected for the initial SILAC pooling ratio, which was determined from the median of protein ratios in pooled SILAC-encoded cell extracts.
# [2] = molecular target: T2, EphB2 (Homo sapiens, UniProt P29323); assay: binding to AX14596 beads (HeLa lysate, SILAC MS)
# T2 sequence (P29323 19-1055): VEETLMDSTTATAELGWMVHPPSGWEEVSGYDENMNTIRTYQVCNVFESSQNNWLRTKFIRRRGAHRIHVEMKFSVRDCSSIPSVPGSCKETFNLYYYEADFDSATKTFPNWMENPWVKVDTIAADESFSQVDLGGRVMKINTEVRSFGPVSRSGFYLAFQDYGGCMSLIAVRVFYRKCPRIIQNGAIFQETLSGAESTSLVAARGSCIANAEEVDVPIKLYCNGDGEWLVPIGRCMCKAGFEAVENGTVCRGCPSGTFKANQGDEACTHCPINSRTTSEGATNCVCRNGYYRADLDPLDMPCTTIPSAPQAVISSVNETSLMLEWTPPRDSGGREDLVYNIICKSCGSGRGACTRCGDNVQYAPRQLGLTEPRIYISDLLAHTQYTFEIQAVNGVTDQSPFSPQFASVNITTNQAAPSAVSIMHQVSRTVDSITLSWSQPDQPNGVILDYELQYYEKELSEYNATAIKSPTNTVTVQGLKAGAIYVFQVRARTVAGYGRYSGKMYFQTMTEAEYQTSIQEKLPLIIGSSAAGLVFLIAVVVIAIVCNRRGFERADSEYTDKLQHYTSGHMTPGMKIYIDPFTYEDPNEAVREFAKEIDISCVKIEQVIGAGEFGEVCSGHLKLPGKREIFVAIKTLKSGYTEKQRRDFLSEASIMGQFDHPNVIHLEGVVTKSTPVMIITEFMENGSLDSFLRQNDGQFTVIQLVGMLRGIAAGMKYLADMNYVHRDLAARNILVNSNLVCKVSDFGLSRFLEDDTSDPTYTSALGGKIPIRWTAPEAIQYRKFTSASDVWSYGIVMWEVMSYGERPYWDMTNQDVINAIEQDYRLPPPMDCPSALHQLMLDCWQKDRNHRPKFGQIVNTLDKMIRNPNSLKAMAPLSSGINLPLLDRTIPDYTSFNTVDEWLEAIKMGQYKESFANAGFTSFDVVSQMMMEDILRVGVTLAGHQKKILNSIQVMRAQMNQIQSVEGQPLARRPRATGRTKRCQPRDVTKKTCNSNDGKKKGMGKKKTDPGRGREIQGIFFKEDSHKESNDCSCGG
# Description: as §1, §2
structure (smiles),measurement,setting,value
COc1cc2ncnc(Nc3ccc(F)c(Cl)c3)c2cc1OCCCN [AX14596],Ki,[1],186 µM
same,r (3 mg/1 mg lysate),[1],2.56
same,r (5 h/2.5 h inc. time),[1],0.97
same,rAVERAGE (2. inc/1. inc),[1],0.65
same,rAVERAGE (control/1. inc),[1],0.00
same,Ki,[2],213 µM
same,r (3 mg/1 mg lysate),[2],3.41
same,r (5 h/2.5 h inc. time),[2],1.06
same,rAVERAGE (2. inc/1. inc),[2],0.68
same,rAVERAGE (control/1. inc),[2],0.04
